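Where inhibition never reached the appropriate level, the endpoint shown equals the highest concentration tested. Otherwise, values were interpolated linearly from a five-concentration, 48-hour dose response in 96-well plates. Here, GI50 denotes the concentration required for 50% inhibition of growth. TGI is the concentration that stops growth completely.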
Key:
Experiment in all cases: NCI tumour cell line growth inhibition, 48 h
[1] = test system: PC-3 prostate
[2] = test system: UACC-257 melanoma
[3] = test system: HT29 colon
[4] = test system: RPMI-8226 leukemia
[5] = test system: MDA-MB-231 breast
[6] = test system: SNB-19 CNS
[7] = test system: EKVX NSCLC
[8] = test system: MALME-3M melanoma
[9] = test system: NCI/ADR-RES ovarian
[10] = test system: SF-268 CNS
[11] = test system: DU-145 prostate
[12] = test system: NCI-H23 lung
[13] = test system: NCI-H522 lung
[14] = test system: MDA-MB-435
[15] = test system: UO-31 renal
[16] = test system: HS 578T breast
[17] = test system: HCT-15 colon
[18] = test system: K-562 leukemia
[19] = test system: U251 CNS
[20] = test system: NCI-H226 lung
[21] = test system: SK-MEL-28 melanoma
[22] = test system: SK-OV-3 ovarian
[23] = test system: SW-620 colon
[24] = test system: UACC-62 melanoma
[25] = test system: SF-539 CNS
[26] = test system: HCC-2998 colon
[27] = test system: ACHN renal
[28] = test system: 786-0 renal
[29] = test system: SF-295 CNS
[30] = test system: SK-MEL-5 melanoma
[31] = test system: BT-549 breast
[32] = test system: OVCAR-4 ovarian
[33] = test system: OVCAR-5 ovarian
[34] = test system: HCT-116 colon
[35] = test system: SK-MEL-2 melanoma
[36] = test system: NCI-H460 lung
[37] = test system: TK-10 renal
[38] = test system: HOP-92 NSCLC
[39] = test system: SNB-75 CNS
[40] = test system: OVCAR-8 ovarian
[41] = test system: SN12C renal
[42] = test system: MOLT-4 leukemia
[43] = test system: MCF7 breast
[44] = test system: T-47D breast
[45] = test system: COLO 205 colon
[46] = test system: IGROV1 ovarian
[47] = test system: M14 melanoma
[48] = test system: A549 NSCLC
[49] = test system: CAKI-1 renal

## N=C(N)c1ccc(OCc2cccc(COc3ccc(C(=N)N)cc3)c2)cc1
[1]
  GI50: 12.4 µM
  TGI: 25.8 µM
[2]
  GI50: 14.4 µM
  TGI: 84.8 µM
[3]
  GI50: 7.64 µM
  TGI: > 100 µM
[4]
  GI50: 3.11 µM
  TGI: 7.88 µM
[5]
  GI50: 4.09 µM
  TGI: 15.9 µM
[6]
  GI50: 5.75 µM
  TGI: > 100 µM
[7]
  GI50: 2.85 µM
  TGI: 8.25 µM
[8]
  GI50: 1.77 µM
  TGI: 6.01 µM
[9]
  GI50: > 100 µM
  TGI: > 100 µM
[10]
  GI50: 5.53 µM
  TGI: 18.5 µM
[11]
  GI50: 6.12 µM
  TGI: 20.3 µM
[12]
  GI50: 8.59 µM
  TGI: 27.9 µM
[13]
  GI50: 16 µM
  TGI: > 100 µM
[14]
  GI50: 4.01 µM
  TGI: 11.8 µM
[15]
  GI50: 42.1 µM
  TGI: > 100 µM
[16]
  GI50: 4 µM
  TGI: 12.5 µM
[17]
  GI50: 17.8 µM
  TGI: > 100 µM
[18]
  GI50: 3.62 µM
  TGI: 19 µM
[19]
  GI50: 3.73 µM
  TGI: 17.2 µM
[20]
  GI50: 7.2 µM
  TGI: 23.1 µM
[21]
  GI50: 5.15 µM
  TGI: 29.1 µM
[22]
  GI50: 18.4 µM
  TGI: 50.9 µM
[23]
  GI50: 5.64 µM
  TGI: 21.3 µM
[24]
  GI50: 2.17 µM
  TGI: 7.99 µM
[25]
  GI50: 1.92 µM
  TGI: 5.1 µM
[26]
  GI50: 11.4 µM
  TGI: 33.2 µM
[27]
  GI50: 17.8 µM
  TGI: 49.3 µM
[28]
  GI50: 4.56 µM
  TGI: 15.1 µM
[29]
  GI50: 2.82 µM
  TGI: 9.35 µM
[30]
  GI50: 1.96 µM
  TGI: 4.28 µM
[31]
  GI50: 3.41 µM
  TGI: 9.37 µM
[32]
  GI50: 14.1 µM
  TGI: 99.6 µM
[33]
  GI50: 29.1 µM
  TGI: > 100 µM
[34]
  GI50: 5.22 µM
  TGI: 16.9 µM
[35]
  GI50: 24.2 µM
  TGI: > 100 µM
[36]
  GI50: 4.27 µM
  TGI: 20 µM
[37]
  GI50: 7.61 µM
  TGI: 21 µM
[38]
  GI50: 3.01 µM
  TGI: 9.32 µM
[39]
  GI50: 11.3 µM
  TGI: 31.2 µM
[40]
  GI50: 11.3 µM
  TGI: 38.4 µM
[41]
  GI50: 2.68 µM
  TGI: 13.1 µM
[42]
  GI50: 16.3 µM
  TGI: 45.4 µM
[43]
  GI50: 4.5 µM
  TGI: 14.9 µM
[44]
  GI50: 26.9 µM
  TGI: > 100 µM
[45]
  GI50: 15.1 µM
  TGI: 40.3 µM
[46]
  GI50: 22.2 µM
  TGI: > 100 µM
[47]
  GI50: 2.83 µM
  TGI: 7.35 µM
[48]
  GI50: 19.3 µM
  TGI: > 100 µM
[49]
  GI50: 11.4 µM
  TGI: 27.2 µM
